The values below come from PubChem BioAssay AID256 (DTP/NCI, 2004).

Several values for one entry are separate records, joined by “and”; a condition that tells them apart may be missing. Identical values can stand only once. Toxic doses and inconclusive results are not listed.

The experiment has as its system CD2F1 mice, L1210 leukemia ip, survival T/C. Put plainly: NCI In Vivo Anticancer Drug Screen. Data for tumor model L1210 Leukemia (intraperitoneal) in CD2F1 (CDF1) mice. The following applies: higher = longer survival. Put shortly: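 In this screen, transplantable tumors were grown in mice given either the compound or its vehicle. Results were expressed as the treated measurement relative to the control measurement.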

[1] abbreviates: endpoint: mean survival time, dose: 100.0 mg/kg/injection, schedule: Q01DX001 (ip), vehicle: saline with Tween-80.
Setting [2] is: endpoint: mean survival time, dose: 200.0 mg/kg/injection, schedule: Q01DX001 (ip), vehicle: saline with Tween-80.
[3] abbreviates: endpoint: mean survival time, dose: 100.0 mg/kg/injection, schedule: Q01DX009 (ip), vehicle: saline.
Where [4] appears, read: endpoint: mean survival time, dose: 200.0 mg/kg/injection, schedule: Q01DX009 (ip), vehicle: saline.
Setting [5] is: endpoint: mean survival time, dose: 100.0 mg/kg/injection, schedule: Q01DX009 (ip), vehicle: saline with Tween-80.
The mark [6] stands for this setting: endpoint: mean survival time, dose: 200.0 mg/kg/injection, schedule: Q01DX009 (ip), vehicle: saline with Tween-80.
Setting [7] is: endpoint: mean survival time, dose: 400.0 mg/kg/injection, schedule: Q01DX009 (ip), vehicle: saline with Tween-80.
The mark [8] stands for this setting: endpoint: mean survival time, dose: 200.0 mg/kg/injection, schedule: Q04DX003 (ip), vehicle: saline with Tween-80.
Where [9] appears, read: endpoint: mean survival time, dose: 400.0 mg/kg/injection, schedule: Q04DX003 (ip), vehicle: saline with Tween-80.
Setting [10] is: endpoint: mean survival time, dose: 100.0 mg/kg/injection, schedule: Q04DX002 (ip), vehicle: saline with Tween-80.
Where [11] appears, read: endpoint: mean survival time, dose: 200.0 mg/kg/injection, schedule: Q04DX002 (ip), vehicle: saline with Tween-80.
Setting [12] is: endpoint: mean survival time, dose: 400.0 mg/kg/injection, schedule: Q04DX002 (ip), vehicle: saline with Tween-80.

As to `O=C1C(c2ccccc2)=C(c2ccccc2)c2cc(Br)c(Br)cc21`, the T/C by setting is: (endpoint: mean survival time, dose: 50.0 mg/kg/injection, schedule: Q01DX001 (ip), vehicle: saline with Tween-80) 93 % of control; under setting [1], 93 % of control; under setting [2], 93 % of control.
For the compound `COc1ccc(C2=Nc3cccc4c3N(CCC4)C2c2ccc(OC)cc2)cc1` (stereo not given), the T/C is 96 % of control (endpoint: mean survival time, dose: 100.0 mg/kg/injection, schedule: Q04DX003 (ip), vehicle: other); 96 % of control (endpoint: mean survival time, dose: 200.0 mg/kg/injection, schedule: Q04DX003 (ip), vehicle: other); 94 % of control (endpoint: mean survival time, dose: 400.0 mg/kg/injection, schedule: Q04DX003 (ip), vehicle: other).
In the case of `O=C1OCc2ccc3ccccc3c21`, the T/C (endpoint: mean survival time, dose: 50.0 mg/kg/injection, schedule: Q01DX001 (ip), vehicle: saline) is 97 % of control; the T/C (endpoint: mean survival time, dose: 100.0 mg/kg/injection, schedule: Q01DX001 (ip), vehicle: saline) is 89 % of control; the T/C (endpoint: mean survival time, dose: 200.0 mg/kg/injection, schedule: Q01DX001 (ip), vehicle: saline) was 93 % of control; the T/C (endpoint: mean survival time, dose: 400.0 mg/kg/injection, schedule: Q01DX001 (ip), vehicle: saline) is 93 % of control.
On to `CC(C)CC(NC(=O)C(CSC(c1ccccc1)(c1ccccc1)c1ccccc1)NC(c1ccccc1)(c1ccccc1)c1ccccc1)C(=O)O` (stereo not given), for which the T/C runs as follows: (endpoint: mean survival time, dose: 50.0 mg/kg/injection, schedule: Q01DX009 (ip), vehicle: saline) 97 % of control; under setting [3], 91 % of control; under setting [4], 92 % of control; (endpoint: mean survival time, dose: 400.0 mg/kg/injection, schedule: Q01DX009 (ip), vehicle: saline) 91 % of control.
Take `COc1cc(-c2cc(OC)c(O)c(OC)c2)cc(OC)c1O`: the T/C was 96 % of control under setting [1]; 101 % of control under setting [2]; 90 % of control (endpoint: mean survival time, dose: 400.0 mg/kg/injection, schedule: Q01DX001 (ip), vehicle: saline with Tween-80).
Take `CCOC(=O)CC(=O)c1ccc(C)cc1`: the T/C is, setting by setting: under setting [5], 96 % of control; under setting [6], 105 % of control; under setting [7], 89 % of control.
Consider `NS(=O)(=O)c1cc(Cl)cc(Cl)c1O`, for which the T/C reads like this: under setting [8], 91 % of control; under setting [9], 93 % of control.
As for `O=c1n(C2OC(CO)C(O)C2O)ccc2nnnn12` (stereo not given), the T/C by setting is: (endpoint: mean survival time, dose: 12.5 mg/kg/injection, schedule: Q01DX005 (ip), vehicle: distilled water + Tween-80) 100 % of control; (endpoint: mean survival time, dose: 25.0 mg/kg/injection, schedule: Q01DX005 (ip), vehicle: distilled water + Tween-80) 96 % of control; (endpoint: mean survival time, dose: 50.0 mg/kg/injection, schedule: Q01DX005 (ip), vehicle: distilled water + Tween-80) 100 % of control; (endpoint: mean survival time, dose: 100.0 mg/kg/injection, schedule: Q01DX005 (ip), vehicle: distilled water + Tween-80) 96 % of control; (endpoint: mean survival time, dose: 200.0 mg/kg/injection, schedule: Q01DX005 (ip), vehicle: distilled water + Tween-80) 102 % of control.
As for `C=CCc1cc(CNCC(O)c2ccccc2)c(O)c(OC)c1` (stereo not given), the T/C runs as follows: (endpoint: mean survival time, dose: 25.0 mg/kg/injection, schedule: Q01DX009 (ip), vehicle: Klucel (hydroxypropylcellulose) (HPC)) 89 % of control; (endpoint: mean survival time, dose: 50.0 mg/kg/injection, schedule: Q01DX009 (ip), vehicle: Klucel (hydroxypropylcellulose) (HPC)) 112 % of control.
On to `COc1cc2c(c(OC)c1OC)-c1ccc(SC)c(=O)cc1[C@@H](NC1OC(CO)C(O)C(O)C1O)CC2` (stereo not given in full), for which the T/C (endpoint: mean survival time, dose: 3.13 mg/kg/injection, schedule: Q01DX009 (ip), vehicle: saline) was 117 % of control.
Regarding `CC1=C(C)C(=O)C(CC2=C(C)C(=O)C(C)=C(C)C2=O)=C(C)C1=O`, the T/C is, setting by setting: under setting [10], 102 % of control; under setting [11], 91 % of control; under setting [12], 109 % of control.
As for `CC1=CC(=O)C(C(C)C)CC1=O` (stereo not given), the T/C is, setting by setting: (endpoint: mean survival time, dose: 6.25 mg/kg/injection, schedule: Q01DX009 (ip), vehicle: saline with Tween-80) 98 % of control; (endpoint: mean survival time, dose: 12.5 mg/kg/injection, schedule: Q01DX009 (ip), vehicle: saline with Tween-80) 102 % of control; (endpoint: mean survival time, dose: 25.0 mg/kg/injection, schedule: Q01DX009 (ip), vehicle: saline with Tween-80) 95 % of control.
With `CC(C)(C)OC(=O)NC(=O)CCC(N)C(=O)O` (stereo not given), the T/C (endpoint: mean survival time, dose: 100.0 mg/kg/injection, schedule: Q04DX003 (ip), vehicle: saline with Tween-80) is 94 % of control; the T/C under setting [8] was 91 % of control; the T/C under setting [9] was 92 % of control.
With `FC(F)(F)c1ccc(Cl)c(N=C=S)c1`, the T/C is, setting by setting: under setting [10], 104 % of control; under setting [11], 93 % of control.
For the compound `C[C@H](N)C(=O)N[C@@H]1[C@H]2C(=C(O)C[C@@H](O)[C@@H]2O)C(=O)O[C@@H]1C`, the T/C (endpoint: mean survival time, dose: 100.0 mg/kg/injection, schedule: Q01DX007 (ip), vehicle: saline) was 113 % of control; the T/C under setting [3] was 118 % of control; the T/C (endpoint: mean survival time, dose: 100.0 mg/kg/injection, schedule: Q03DX003 (ip), vehicle: saline) is 107 % of control; the T/C (endpoint: mean survival time, dose: 100.0 mg/kg/injection, schedule: Q04DX003 (ip), vehicle: saline) is 106 % of control; the T/C (endpoint: mean survival time, dose: 200.0 mg/kg/injection, schedule: Q01DX007 (ip), vehicle: saline) was 124 % of control; the T/C under setting [4] is 120 % of control. The T/C is 109 % of control (endpoint: mean survival time, dose: 200.0 mg/kg/injection, schedule: Q03DX003 (ip), vehicle: saline); 106 % of control (endpoint: mean survival time, dose: 200.0 mg/kg/injection, schedule: Q04DX003 (ip), vehicle: saline); 115 % of control (endpoint: mean survival time, dose: 400.0 mg/kg/injection, schedule: Q03DX003 (ip), vehicle: saline); 112 % of control (endpoint: mean survival time, dose: 400.0 mg/kg/injection, schedule: Q04DX003 (ip), vehicle: saline); 103 % of control (endpoint: median survival time, dose: 75.0 mg/kg/injection, schedule: Q01DX009 (ip), vehicle: saline); 109 % of control (endpoint: median survival time, dose: 150.0 mg/kg/injection, schedule: Q01DX009 (ip), vehicle: saline). Further, the T/C is 119 % of control (endpoint: median survival time, dose: 300.0 mg/kg/injection, schedule: Q01DX009 (ip), vehicle: saline); 150 % of control and 166 % of control (endpoint: median survival time, dose: 1200.0 mg/kg/injection, schedule: Q01DX009 (ip), vehicle: saline); 86 % of control (endpoint: median survival time, dose: 2400.0 mg/kg/injection, schedule: Q01DX009 (ip), vehicle: saline).
Turning to `O=C(Nc1ccc(F)c(Cl)c1)Oc1ccc(F)cc1Cl`, the T/C by setting is: under setting [5], 103 % of control; under setting [6], 104 % of control; under setting [7], 92 % of control.
Turning to `C[NH-].C[NH-].C[NH-].C[NH-].O=C(O)c1cc(C(=O)O)c(C(=O)O)cc1C(=O)O.[Pt+2].[Pt+2]`, the T/C runs as follows: (endpoint: mean survival time, dose: 3.12 mg/kg/injection, schedule: Q04DX003 (ip), vehicle: distilled water + Tween-80) 100 % of control; (endpoint: mean survival time, dose: 6.25 mg/kg/injection, schedule: Q04DX003 (ip), vehicle: distilled water + Tween-80) 102 % of control; (endpoint: mean survival time, dose: 12.5 mg/kg/injection, schedule: Q04DX003 (ip), vehicle: distilled water + Tween-80) 103 % of control; (endpoint: mean survival time, dose: 25.0 mg/kg/injection, schedule: Q04DX003 (ip), vehicle: distilled water + Tween-80) 105 % of control; (endpoint: mean survival time, dose: 50.0 mg/kg/injection, schedule: Q04DX003 (ip), vehicle: distilled water + Tween-80) 102 % of control; (endpoint: mean survival time, dose: 100.0 mg/kg/injection, schedule: Q04DX003 (ip), vehicle: distilled water + Tween-80) 103 % of control. Under “endpoint: mean survival time, dose: 200.0 mg/kg/injection, schedule: Q04DX003 (ip), vehicle: distilled water + Tween-80”, the T/C is 107 % of control.
Take `O=C(Sc1cn(C2CC(O)C(CO)O2)c(=O)[nH]c1=O)c1ccc(N(CCCl)CCCl)cc1` (stereo not given): the T/C by setting is: (endpoint: mean survival time, dose: 12.5 mg/kg/injection, schedule: Q01DX005 (ip), vehicle: water) 117 % of control; (endpoint: mean survival time, dose: 25.0 mg/kg/injection, schedule: Q01DX005 (ip), vehicle: water) 115 % of control; (endpoint: mean survival time, dose: 50.0 mg/kg/injection, schedule: Q01DX005 (ip), vehicle: water) 124 % of control; (endpoint: mean survival time, dose: 66.0 mg/kg/injection, schedule: Q01DX005 (ip), vehicle: water) 119 % of control; (endpoint: mean survival time, dose: 100.0 mg/kg/injection, schedule: Q01DX005 (ip), vehicle: water) 119 % of control; (endpoint: mean survival time, dose: 200.0 mg/kg/injection, schedule: Q01DX005 (ip), vehicle: water) 120 % of control.
In the case of `COc1ccc(C2=CC(c3ccccc3)C(c3ccccc3)C(=O)N2)cc1` (stereo not given), the T/C (endpoint: mean survival time, dose: 25.0 mg/kg/injection, schedule: Q04DX002 (ip), vehicle: saline with Tween-80) is 98 % of control; the T/C under setting [11] is 97 % of control; the T/C under setting [12] was 90 % of control.
